Settings: 283.15 K, Liquid, Vibrating tube method

CCCCCC(=O)OCC(COC(=O)CCCCC)(COC(=O)CCCCC)COC(=O)CCCCC [pentaerythritol tetrahexanoate]
Settings	mass density [kg/m3]
20425 kPa	1015.6
20443 kPa	1015.7
20458 kPa	1015.7
20473 kPa	1015.7
20491 kPa	1015.7
20506 kPa	1015.6
20522 kPa	1015.6
20537 kPa	1015.7
20555 kPa	1015.7
20571 kPa	1015.7
20586 kPa	1015.8
20606 kPa	1015.7
20621 kPa	1015.7
20637 kPa	1015.9
20652 kPa	1015.7
20670 kPa	1015.8
20686 kPa	1015.8
20701 kPa	1015.7
20719 kPa	1015.8
20735 kPa	1015.7
20750 kPa	1015.8
20769 kPa	1016
20785 kPa	1015.8
20801 kPa	1016
20817 kPa	1015.9
20836 kPa	1015.8
20851 kPa	1015.8
20867 kPa	1015.8
20886 kPa	1015.9
20902 kPa	1015.9
20918 kPa	1015.9
20937 kPa	1015.9
20953 kPa	1015.9
20968 kPa	1015.9
20988 kPa	1015.9
21004 kPa	1016
21021 kPa	1016
21040 kPa	1016
21057 kPa	1016
21073 kPa	1016
21092 kPa	1016
21106 kPa	1016
21122 kPa	1016
21140 kPa	1016.1
21155 kPa	1016
21170 kPa	1015.9
21185 kPa	1016.1
21204 kPa	1016.1
21219 kPa	1016
21237 kPa	1016
21252 kPa	1016.1
21267 kPa	1016.1
21282 kPa	1016.1
21301 kPa	1016.1
21316 kPa	1016.1
21332 kPa	1016.1
21350 kPa	1016.1
21366 kPa	1016.2
21384 kPa	1016.2
21399 kPa	1016.1
21415 kPa	1016.1
21430 kPa	1016.2
21449 kPa	1016.3
21465 kPa	1016.1
21480 kPa	1016.2
21499 kPa	1016.1
21514 kPa	1016.3
21530 kPa	1016.3
21546 kPa	1016.3
21565 kPa	1016.2
21581 kPa	1016.1
21597 kPa	1016.3
21616 kPa	1016.3
21632 kPa	1016.3
21648 kPa	1016.3
21667 kPa	1016.2
21684 kPa	1016.3
21699 kPa	1016.3
21715 kPa	1016.3
21734 kPa	1016.4
21766 kPa	1016.3
21786 kPa	1016.3
21802 kPa	1016.5
21821 kPa	1016.3
21837 kPa	1016.4
21853 kPa	1016.4
21870 kPa	1016.3
21887 kPa	1016.3
21904 kPa	1016.4
21923 kPa	1016.5
21940 kPa	1016.5
21959 kPa	1016.4
21976 kPa	1016.5
21992 kPa	1016.5
22008 kPa	1016.5
22028 kPa	1016.5
22044 kPa	1016.5
22061 kPa	1016.5
22081 kPa	1016.5
22098 kPa	1016.4
22117 kPa	1016.6
22134 kPa	1016.7
22150 kPa	1016.5
22170 kPa	1016.6
22187 kPa	1016.6
22204 kPa	1016.7
22224 kPa	1016.5
22241 kPa	1016.6
22261 kPa	1016.5
22278 kPa	1016.5
22295 kPa	1016.5
22316 kPa	1016.6
22333 kPa	1016.6
22350 kPa	1016.7
22367 kPa	1016.7
22386 kPa	1016.7
22402 kPa	1016.7
22421 kPa	1016.6
22436 kPa	1016.7
22452 kPa	1016.7
22468 kPa	1016.6
22487 kPa	1016.8
22503 kPa	1016.7
22522 kPa	1016.7
22538 kPa	1016.8
22555 kPa	1016.8
22574 kPa	1016.7
22590 kPa	1016.8
22607 kPa	1016.7
22623 kPa	1016.8
22643 kPa	1016.7
22660 kPa	1016.7
22676 kPa	1016.8
22695 kPa	1016.9
22710 kPa	1016.9
22728 kPa	1016.8
22744 kPa	1016.8
22760 kPa	1016.9
22779 kPa	1016.9
22795 kPa	1017
22810 kPa	1016.8
22826 kPa	1017
22845 kPa	1017
22861 kPa	1016.8
22880 kPa	1017
22895 kPa	1017
22911 kPa	1016.9
22928 kPa	1017
22946 kPa	1017
22963 kPa	1017
22982 kPa	1016.9
22997 kPa	1017.1
23012 kPa	1016.9
23030 kPa	1017.2
23045 kPa	1016.9
23060 kPa	1017
23075 kPa	1017
23093 kPa	1017
23108 kPa	1017.1
23124 kPa	1017.1
23142 kPa	1017.1
23157 kPa	1017
23175 kPa	1017
23191 kPa	1017.1
23206 kPa	1017.1
23221 kPa	1017.2
23240 kPa	1017
23255 kPa	1017.2
23274 kPa	1017.3
23290 kPa	1017.1
23305 kPa	1017
23323 kPa	1017.2
23339 kPa	1017.2
23354 kPa	1017.2
23370 kPa	1017.3
23389 kPa	1017
23405 kPa	1017.1
23422 kPa	1017.2
23437 kPa	1017.2
23456 kPa	1017.3
23472 kPa	1017.2
23488 kPa	1017.3
23507 kPa	1017.3
23523 kPa	1017.3
23539 kPa	1017.3
23555 kPa	1017.3
23574 kPa	1017.4
23590 kPa	1017.3
23607 kPa	1017.3
23627 kPa	1017.4
23640 kPa	1017.5
23659 kPa	1017.4
23675 kPa	1017.3
23691 kPa	1017.3
23711 kPa	1017.4
23726 kPa	1017.3
23746 kPa	1017.4
23762 kPa	1017.4
23778 kPa	1017.3
23794 kPa	1017.3
23813 kPa	1017.5
23830 kPa	1017.5
23849 kPa	1017.4
23866 kPa	1017.5
23883 kPa	1017.5
23902 kPa	1017.5
23919 kPa	1017.4
23935 kPa	1017.5
23951 kPa	1017.5
23971 kPa	1017.5
23988 kPa	1017.5
24004 kPa	1017.5
24024 kPa	1017.5
24041 kPa	1017.6
24061 kPa	1017.6
24078 kPa	1017.6
24095 kPa	1017.6
24111 kPa	1017.6
24131 kPa	1017.6
24148 kPa	1017.7
24185 kPa	1017.6
24202 kPa	1017.5
24222 kPa	1017.8
24239 kPa	1017.6
24272 kPa	1017.8
24327 kPa	1017.7
24364 kPa	1017.7
24382 kPa	1017.7
24399 kPa	1017.7
24419 kPa	1017.6
24436 kPa	1017.7
24457 kPa	1017.8
24474 kPa	1017.8
24492 kPa	1017.9
24509 kPa	1017.7
24530 kPa	1017.9
24548 kPa	1017.9
24565 kPa	1017.9
24586 kPa	1017.7
24603 kPa	1017.7
24620 kPa	1017.8
24641 kPa	1018
24659 kPa	1017.8
24676 kPa	1017.9
24697 kPa	1017.9
24715 kPa	1017.9
24733 kPa	1017.8
24754 kPa	1017.8
24772 kPa	1018
24789 kPa	1018
24810 kPa	1017.9
24828 kPa	1017.9
24846 kPa	1017.9
24867 kPa	1017.9
24884 kPa	1018
24903 kPa	1017.8
24924 kPa	1018
24942 kPa	1018
24960 kPa	1018.1
24981 kPa	1018
25000 kPa	1018
25018 kPa	1018
25037 kPa	1018.1
25059 kPa	1018.2
25077 kPa	1018
25095 kPa	1018.1
25117 kPa	1018.2
25135 kPa	1018.2
25154 kPa	1018.1
25175 kPa	1018.1
25194 kPa	1018.1
25212 kPa	1018.1
25234 kPa	1018.2
25253 kPa	1018.2
25272 kPa	1018.1
25290 kPa	1018.1
25309 kPa	1018.2
25331 kPa	1018.2
25350 kPa	1018.2
25372 kPa	1018.2
25391 kPa	1018.3
25410 kPa	1018.2
25428 kPa	1018.2
25451 kPa	1018.2
25470 kPa	1018.3
25489 kPa	1018.2
25511 kPa	1018.1
25530 kPa	1018.3
25553 kPa	1018.2
25572 kPa	1018.3
